Experimental data published in PubChem BioAssay (NCI).
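Five compound concentrations were applied to cells in 96-well plates for 48 hours; endpoints were derived by simple linear interpolation of the resulting dose-response curve. TGI: total growth inhibition.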

How the values were obtained:
Experiment in all cases: NCI tumour cell line growth inhibition, 48 h
OVCAR-4 ovarian = tested on: OVCAR-4 ovarian
HL-60(TB) leukemia = tested on: HL-60(TB) leukemia
U251 CNS = tested on: U251 CNS
LXFL 529 NSCLC = tested on: LXFL 529 NSCLC
SK-MEL-5 melanoma = tested on: SK-MEL-5 melanoma
786-0 renal = tested on: 786-0 renal
CCRF-CEM leukemia = tested on: CCRF-CEM leukemia
UACC-257 melanoma = tested on: UACC-257 melanoma
HCT-15 colon = tested on: HCT-15 colon
SF-268 CNS = tested on: SF-268 CNS
K-562 leukemia = tested on: K-562 leukemia
RPMI-8226 leukemia = tested on: RPMI-8226 leukemia
M19-MEL melanoma = tested on: M19-MEL melanoma
UACC-62 melanoma = tested on: UACC-62 melanoma
SNB-19 CNS = tested on: SNB-19 CNS
HOP-18 NSCLC = tested on: HOP-18 NSCLC
SR leukemia = tested on: SR leukemia
TK-10 renal = tested on: TK-10 renal
SN12C renal = tested on: SN12C renal
UO-31 renal = tested on: UO-31 renal
OVCAR-8 ovarian = tested on: OVCAR-8 ovarian
HCT-116 colon = tested on: HCT-116 colon
KM20L2 colon = tested on: KM20L2 colon
KM12 colon = tested on: KM12 colon
RXF 393 renal = tested on: RXF 393 renal
ACHN renal = tested on: ACHN renal
SNB-78 CNS = tested on: SNB-78 CNS
DMS 114 small cell lung = tested on: DMS 114 small cell lung
NCI-H226 lung = tested on: NCI-H226 lung
DLD-1 colon = tested on: DLD-1 colon
A549 NSCLC = tested on: A549 NSCLC
SK-MEL-2 melanoma = tested on: SK-MEL-2 melanoma
NCI-H460 lung = tested on: NCI-H460 lung
SW-620 colon = tested on: SW-620 colon
OVCAR-3 ovarian = tested on: OVCAR-3 ovarian
SNB-75 CNS = tested on: SNB-75 CNS
M14 melanoma = tested on: M14 melanoma
SF-539 CNS = tested on: SF-539 CNS
A498 renal = tested on: A498 renal
CAKI-1 renal = tested on: CAKI-1 renal
MOLT-4 leukemia = tested on: MOLT-4 leukemia
IGROV1 ovarian = tested on: IGROV1 ovarian
DMS 273 small cell lung = tested on: DMS 273 small cell lung
HOP-62 NSCLC = tested on: HOP-62 NSCLC
SK-MEL-28 melanoma = tested on: SK-MEL-28 melanoma
COLO 205 colon = tested on: COLO 205 colon
MALME-3M melanoma = tested on: MALME-3M melanoma
HCC-2998 colon = tested on: HCC-2998 colon
SK-OV-3 ovarian = tested on: SK-OV-3 ovarian
NCI-H522 lung = tested on: NCI-H522 lung
NCI-H23 lung = tested on: NCI-H23 lung
HT29 colon = tested on: HT29 colon
HOP-92 NSCLC = tested on: HOP-92 NSCLC
SF-295 CNS = tested on: SF-295 CNS
OVCAR-5 ovarian = tested on: OVCAR-5 ovarian
LOX IMVI melanoma = tested on: LOX IMVI melanoma

Measured: TGI

CCCNC(=O)C(C)(Cl)C(=O)c1ccccc1O (stereo unspecified)
> 100 µM: OVCAR-4 ovarian | HL-60(TB) leukemia | U251 CNS | LXFL 529 NSCLC | SK-MEL-5 melanoma | 786-0 renal | CCRF-CEM leukemia | UACC-257 melanoma | HCT-15 colon | SF-268 CNS | K-562 leukemia | RPMI-8226 leukemia | M19-MEL melanoma | UACC-62 melanoma | SNB-19 CNS | HOP-18 NSCLC | SR leukemia | TK-10 renal | SN12C renal | UO-31 renal | OVCAR-8 ovarian | HCT-116 colon | KM20L2 colon | KM12 colon | RXF 393 renal | ACHN renal | SNB-78 CNS | DMS 114 small cell lung | NCI-H226 lung | DLD-1 colon | A549 NSCLC | SK-MEL-2 melanoma | NCI-H460 lung | SW-620 colon | OVCAR-3 ovarian | SNB-75 CNS | M14 melanoma | SF-539 CNS | A498 renal | CAKI-1 renal | MOLT-4 leukemia | IGROV1 ovarian | DMS 273 small cell lung | HOP-62 NSCLC | SK-MEL-28 melanoma | COLO 205 colon | MALME-3M melanoma | HCC-2998 colon | SK-OV-3 ovarian | NCI-H522 lung

C=CCC12CC(=O)CCC1CC(=O)C2 (stereo unspecified)
> 100 µM: OVCAR-4 ovarian | HL-60(TB) leukemia | U251 CNS | LXFL 529 NSCLC | SK-MEL-5 melanoma | 786-0 renal | CCRF-CEM leukemia | UACC-257 melanoma | HCT-15 colon | SF-268 CNS | K-562 leukemia | RPMI-8226 leukemia | M19-MEL melanoma | UACC-62 melanoma | SNB-19 CNS | HOP-18 NSCLC | SR leukemia | TK-10 renal | SN12C renal | UO-31 renal | OVCAR-8 ovarian | HCT-116 colon | KM20L2 colon | KM12 colon | RXF 393 renal | ACHN renal | SNB-78 CNS | DMS 114 small cell lung | NCI-H226 lung | DLD-1 colon | A549 NSCLC | SK-MEL-2 melanoma | NCI-H460 lung | SW-620 colon | OVCAR-3 ovarian | SNB-75 CNS | M14 melanoma | SF-539 CNS | A498 renal | CAKI-1 renal | MOLT-4 leukemia | IGROV1 ovarian | DMS 273 small cell lung | HOP-62 NSCLC | SK-MEL-28 melanoma | COLO 205 colon | MALME-3M melanoma | HCC-2998 colon | SK-OV-3 ovarian | NCI-H522 lung

NC(N)=C1CN(C2CCCCC2)C(=O)NC1=O
> 100 µM: OVCAR-4 ovarian | HL-60(TB) leukemia | U251 CNS | LXFL 529 NSCLC | SK-MEL-5 melanoma | NCI-H23 lung | 786-0 renal | CCRF-CEM leukemia | UACC-257 melanoma | HCT-15 colon | SF-268 CNS | K-562 leukemia | RPMI-8226 leukemia | M19-MEL melanoma | UACC-62 melanoma | SNB-19 CNS | HOP-18 NSCLC | SR leukemia | TK-10 renal | SN12C renal | UO-31 renal | OVCAR-8 ovarian | HT29 colon | HCT-116 colon | KM20L2 colon | KM12 colon | RXF 393 renal | ACHN renal | SNB-78 CNS | HOP-92 NSCLC | DMS 114 small cell lung | SF-295 CNS | NCI-H226 lung | OVCAR-5 ovarian | DLD-1 colon | A549 NSCLC | SK-MEL-2 melanoma | NCI-H460 lung | SW-620 colon | OVCAR-3 ovarian | SNB-75 CNS | M14 melanoma | SF-539 CNS | A498 renal | CAKI-1 renal | MOLT-4 leukemia | IGROV1 ovarian | DMS 273 small cell lung | LOX IMVI melanoma | HOP-62 NSCLC | SK-MEL-28 melanoma | COLO 205 colon | MALME-3M melanoma | HCC-2998 colon | SK-OV-3 ovarian | NCI-H522 lung
